In patent US20240358679A1, “PHARMACEUTICAL AND FOOD COMPOSITIONS FOR THE PREVENTION, ALLEVIATION, OR TREATMENT OF INFLAMMATORY DISEASES COMPRISING 1-ALKYL-5-ARYLIDENE-2-SELENOXOIMIDAZOLIDIN-4-ONE AND ITS DERIVATIVES” (priority 2022, published 2024):

What was measured:
Assay type in all cases: cell-based
SH-SY5Y cell line [1] = assay: Inhibition of reactive oxygen species generation (CM-H2DCFDA fluorescence); conditions: compound 10 μM
Procedure: It is known that the administration of MPP+ or rotenone to cell lines results in the generation of reactive oxygen species (ROS) due to mitochondrial inhibition, the activation of NOX enzymes and the like. The excessively generated ROS can induce various inflammatory responses through multiple pathways. The ROS generated in this process react with the CM-H2DCFDA reagent to produce fluorescence, thereby allowing the indirect quantification of ROS.
Specifically, the SH-SY5Y cell line was treated with Compound 1aaa (Compound 1, 10 μM), apocynin (5 μM), or allopurinol (50 μM), and then with MPP+ (2 mM) or rotenone (2 μM) for 24 hours. The effect of each compound to inhibit the generation of reactive oxygen species is illustrated in FIGS. 2 and 3 as a relative percentage to that of the control group.

SH-SY5Y cell line [2] = assay: Cell viability (MTT assay); conditions: compound 0.5 μM; for cell viability after MPP+: MPP+ (2 mM) 24 hours; for cell viability after rotenone: rotenone (2 μM) 24 hours
Procedure: The treatment of cell lines with the toxic substances MPP+ or rotenone induces cytotoxicity due to various inflammatory and immune response abnormalities. The viability of the cells under these conditions can be measured using the MTT assay.
Specifically, the SH-SY5Y cell line was treated with 0.5 μM of Compound 1aaa (Compound 1), 1aca (Compound 24), 1ace (Compound 27), 1ahe (Compound 44) or 1aje (Compound 62) and then with MPP+ (2 mM) or rotenone (2 μM) for 24 hours. Cell viability in the case of being treated with each compound is illustrated in FIGS. 4 and 5.

Nrf-2 = Nrf-2 induction, Western blot of nuclear fraction; conditions: SH-SY5Y, compound 10 μM, 24 hours, increase
Procedure: When oxidative stress caused by reactive oxygen species increases in cells, the synthesis of antioxidants increases in response to this. One of the transcription factors mediating this antioxidant response is Nrf-2. As the transcription factor Nrf-2 enters the nucleus and the expression of genes related to antioxidation increases, the antioxidant capacity of cells increases,
Specifically, the SH-SY5Y cell line was exposed to Compound 1aaa (Compound 1, 10 μM) for 24 hours and then the cells were taken. Thereafter, the nuclear fraction was extracted, then Western blotting was performed to analyze the amount of Nrf-2 in the nucleus, and the results are illustrated in FIG. 6.

BV2 cell lines = assay: Anti-inflammatory activity: morphological changes of LPS-treated BV2 cells; conditions: compound 0.1, 1, 10 μg/ml for 2 hours, then LPS (10 μg/ml), 24 hours
Procedure: (§1) To evaluate the anti-inflammatory activity of the compounds of the present invention, the morphological changes related to inflammation in cells and the suppression of the expression of inflammatory proteins (IL-1R and COX2) were assessed.
(§2) Specifically, BV2 cell lines were treated with compound 1aaa (0.1, 1, 10 μg/ml) for 2 hours, followed by treatment with LPS (10 μg/ml), and then cultured for 24 hours. Additionally, Western blot analysis was performed to analyze the expression of inflammatory proteins, and the results are shown in FIGS. 8 and 9.

IL-1β = assay: Anti-inflammatory activity: Western blot of IL-1β expression in LPS-treated BV2 cells; conditions: BV2, compound 0.1, 1, 10 μg/ml, LPS (10 μg/ml), 24 hours
Procedure: as §1, §2

COX2 = assay: Anti-inflammatory activity: Western blot of COX2 expression in LPS-treated BV2 cells; conditions: BV2, compound 0.1, 1, 10 μg/ml, LPS (10 μg/ml), 24 hours
Procedure: as §1, §2

Row | Compound | generation of reactive oxygen species after MPP+ (SH-SY5Y cell line [1]; MPP+ (2 mM) 24 hours) | generation of reactive oxygen species after rotenone (SH-SY5Y cell line [1]; rotenone (2 μM) 24 hours) | cell viability after MPP+ (SH-SY5Y cell line [2]) | cell viability after rotenone (SH-SY5Y cell line [2]) | amount of Nrf-2 in the nucleus (Nrf-2) | activation of BV2 macrophages (morphology) (BV2 cell lines) | expression of IL-1β (IL-1β) | expression of COX2 (COX2)
1 | CN1C(=[Se])N(c2ccccc2)C(=O)/C1=C\c1ccc(O)cc1O [Compound 1, 5-(2,4-dihydroxybenzylidene)-1-methyl-3-phenyl-2-selenoxoimidazolidin-4-one] | effectively inhibits | effectively inhibits | improve cell viability | improve cell viability | about 1.5 times | inhibited the activation of BV2 macrophages in a dose-dependent manner | significantly suppressed | significantly suppressed
2 | CCc1ccc(N2C(=O)/C(=C\c3ccc(O)cc3O)N(C)C2=[Se])cc1 [Compound 24, 5-(2,4-dihydroxybenzylidene)-3-(4-ethylphenyl)-1-methyl-2-selenoxoimidazolidin-4-one] |  |  | improve cell viability | improve cell viability |  |  |  | 
3 | CCc1ccc(N2C(=O)/C(=C\c3cc(O)cc(O)c3)N(C)C2=[Se])cc1 [Compound 27, 5-(3,5-dihydroxybenzylidene)-3-(4-ethylphenyl)-1-methyl-2-selenoxoimidazolidin-4-one] |  |  | improve cell viability | improve cell viability |  |  |  | 
4 | CN1C(=[Se])N(CCc2ccccc2)C(=O)/C1=C\c1cc(O)cc(O)c1 [Compound 44, 5-(3,5-dihydroxybenzylidene)-1-methyl-3-phenethyl-2-selenoxoimidazolidin-4-one] |  |  | improve cell viability | improve cell viability |  |  |  | 
5 | CCCCCCN1C(=O)/C(=C\c2cc(O)cc(O)c2)N(C)C1=[Se] [Compound 62, 5-(3,5-dihydroxybenzylidene)-3-hexyl-1-methyl-2-selenoxoimidazolidin-4-one] |  |  | improve cell viability | improve cell viability |  |  |  | 
